Measured values taken from ChEMBL document CHEMBL3272131, “Molecular connectivity. 6. Examination of the parabolic relationship between molecular connectivity and biological activity” (J Med Chem, 1976).

What was measured:
Mus musculus = assay: Induction of anesthetic activity in mouse; format: functional
[1] = test system: Mycobacterium tuberculosis; assay: Antimicrobial activity against Mycobacterium tuberculosis; format: functional
Pseudomonas aeruginosa = assay: Antimicrobial activity against Pseudomonas aeruginosa; format: functional
Clostridium perfringens = assay: Antimicrobial activity against Clostridium welchii; format: functional
Staphylococcus aureus = assay: Antimicrobial activity against Staphylococcus aureus; format: functional
Oryctolagus cuniculus = species: Oryctolagus cuniculus; assay: Induction of hypnotic activity in rabbit; format: functional
Rattus norvegicus = species: Rattus norvegicus; assay: Induction of hypnotic activity in rat; format: functional
[2] = Drug absorption in intestine (unknown origin) assessed as tissue-bound transfer; format: ADME, tissue-based
[3] = Drug absorption in intestine (unknown origin) assessed as mucosal loss; format: ADME, tissue-based
[4] = Drug absorption in intestine (unknown origin) assessed as serosal transfer; format: ADME, tissue-based
[5] = Toxicity in sheep RBC assessed as hemolysis; format: cell-based, Ovis aries; settings: erythrocyte

SMILES: C=CCC1(C(C)C(C)(C)C)C(=O)NC(=O)NC1=O (centres undefined)
- -log(1/AD50) (Mus musculus): 3.39

SMILES: CCCCCCOc1ccc(N)cc1
- -log(1/MIC) [1]: 5.8

SMILES: CCCCCCCCCCCCCCCCC[N+](C)(C)Cc1ccccc1
- -log(1/MIC) (Pseudomonas aeruginosa): 3.57
- -log(1/MKC) (Pseudomonas aeruginosa): 3.06
- -log(1/MIC) (Clostridium perfringens): 4.7
- -log(1/MKC) (Clostridium perfringens): 4.7
- -log(1/MIC) (Staphylococcus aureus): 5.18

SMILES: CC(C)(C)CC1(C)C(=O)NC(=O)NC1=O
- -log(1/AD50) (Mus musculus): 2.12

SMILES: CCCC1(C(C)C)C(=O)NC(=O)NC1=O
- -log(1/MED) (Oryctolagus cuniculus): 3.63

SMILES: CCCC1(CCC)C(=O)NC(=O)NC1=O
- -log(1/MED) (Oryctolagus cuniculus): 3.55

SMILES: CCCCC1(C(C)C(C)(C)C)C(=O)NC(=O)NC1=O (centres undefined)
- -log(1/AD50) (Mus musculus): 3.36

SMILES: C=CCC1(CCC(C)C)C(=O)NC(=O)NC1=O
- -log(1/MED) (Rattus norvegicus): 3.45

SMILES: CC(C(C)(C)C)C1(C)C(=O)NC(=O)NC1=O (centres undefined)
- -log(1/AD50) (Mus musculus): 2.64

SMILES: CCCCCCCCCCCCC[N+](C)(C)Cc1ccccc1 [BENZALKONIUM]
- -log(1/MIC) (Pseudomonas aeruginosa): 3.8
- -log(1/MKC) (Pseudomonas aeruginosa): 3.85
- -log(1/MIC) (Clostridium perfringens): 5.1
- -log(1/MKC) (Clostridium perfringens): 5.1
- -log(1/MIC) (Staphylococcus aureus): 5.8

SMILES: CCC1(c2ccccc2)C(=O)NC(=O)NC1=O [PHENOBARBITAL]
- -log(1/MED) (Oryctolagus cuniculus): 3.46

SMILES: C=CCC1(CC=C)C(=O)NC(=O)NC1=O [ALLOBARBITAL]
- -log(1/MED) (Rattus norvegicus): 3.54

SMILES: CCCC1(CC(C)(C)C)C(=O)NC(=O)NC1=O
- -log(1/AD50) (Mus musculus): 3.04

SMILES: CCCCC1(CC)C(=O)NC(=O)NC1=O [BUTETHAL]
- -log(1/MED) (Rattus norvegicus): 3.53

SMILES: CCCCC1(CC(C)(C)C)C(=O)NC(=O)NC1=O
- -log(1/AD50) (Mus musculus): 3.33

SMILES: CCCCCCCC[N+](C)(C)Cc1ccc(Cl)cc1
- -log(1/MIC) (Staphylococcus aureus): 2.6

SMILES: CCC1(C(C)C(C)(C)C)C(=O)NC(=O)NC1=O (centres undefined)
- -log(1/AD50) (Mus musculus): 3.15

SMILES: CCCCOc1ccc(N)cn1
- -log(1/MIC) [1]: 5.13

SMILES: C=CCC1(C(C)CC)C(=O)NC(=O)NC1=O (centres undefined) [TALBUTAL]
- -log(1/MED) (Rattus norvegicus): 3.78

SMILES: CCC1(C(C)C)C(=O)NC(=O)NC1=O [PROBARBITAL]
- -log(1/MED) (Oryctolagus cuniculus): 3.3
- -log(1/MED) (Rattus norvegicus): 3.34

SMILES: CCCC1(C(C)C(C)(C)C)C(=O)NC(=O)NC1=O (centres undefined)
- -log(1/AD50) (Mus musculus): 3.29

SMILES: COc1ncccc1N
- -log(1/MIC) [1]: 2.59

SMILES: CCOc1ccc(N)cc1
- -log(1/MIC) [1]: 4.44

SMILES: CCC1(CC(C)C)C(=O)NC(=O)NC1=O
- -log(1/MED) (Oryctolagus cuniculus): 3.63

SMILES: CCCCCCOC(N)=O
- log%Abs [2]: -0.05
- log%Abs [3]: 0.5
- log%Abs [4]: 0.35

SMILES: CCOC(N)=O [URETHANE]
- log%Abs [2]: -0.22
- log%Abs [3]: 0.6
- log%Abs [4]: 0.53

SMILES: CC(C)CCC1(CC(C)(C)C)C(=O)NC(=O)NC1=O
- -log(1/AD50) (Mus musculus): 3.26

SMILES: CCCCCCCCOc1ccc(N)cc1
- -log(1/MIC) [1]: 3.44

SMILES: CCCCCCCCCC[N+](C)(C)Cc1ccc(Cl)cc1
- -log(1/MIC) (Staphylococcus aureus): 3.6

SMILES: CCCCCCCCOc1ncccc1N
- -log(1/MIC) [1]: 3.75

SMILES: CCCCCCCCCCCCCCCCCC[N+](C)(C)Cc1ccc(Cl)cc1Cl
- -log(1/MIC) (Staphylococcus aureus): 3.3

SMILES: C=CCC1(CC)C(=O)NC(=O)NC1=O [ETALLOBARBITAL]
- -log(1/MED) (Rattus norvegicus): 3.28

SMILES: CCCCOc1ccc(N)cc1
- -log(1/MIC) [1]: 5.42

SMILES: NC(=O)OCc1ccccc1 [BENZYL CARBAMATE]
- log%Abs [2]: 0.01
- log%Abs [3]: 0.69
- log%Abs [4]: 0.59

SMILES: CC(C)COc1ncccc1N
- -log(1/MIC) [1]: 4.52

SMILES: CCCCCOC(N)=O
- log%Abs [2]: 0.02
- log%Abs [3]: 0.68
- log%Abs [4]: 0.57

SMILES: C=CCC1(CC(C)C)C(=O)NC(=O)NC1=O [BUTALBITAL]
- -log(1/MED) (Rattus norvegicus): 3.63

SMILES: CCCCCCCCOC(N)=O
- log%Abs [2]: -0.57
- log%Abs [3]: -0.19
- log%Abs [4]: -0.43

SMILES: CCCCCCCCCCCC[N+](C)(C)Cc1ccc2c(c1)OCO2
- -log(1/MIC) (Staphylococcus aureus): 4

SMILES: CCCCCCCCCCCCCCC[N+](C)(C)Cc1ccccc1
- -log(1/MIC) (Pseudomonas aeruginosa): 3.84
- -log(1/MKC) (Pseudomonas aeruginosa): 3.74
- -log(1/MIC) (Clostridium perfringens): 5.14
- -log(1/MKC) (Clostridium perfringens): 5.14
- -log(1/MIC) (Staphylococcus aureus): 5.84

SMILES: CCCCCCCC[N+](C)(C)Cc1ccccc1
- -log(1/MKC) (Pseudomonas aeruginosa): 1.68
- -log(1/HC50) [5]: 1.52
- -log(1/MIC) (Clostridium perfringens): 3
- -log(1/MKC) (Clostridium perfringens): 2.69
- -log(1/MIC) (Staphylococcus aureus): 3.69

SMILES: CCCCCCCCCCCCCCCC[N+](C)(C)Cc1ccc2c(c1)OCO2
- -log(1/MIC) (Staphylococcus aureus): 4.2

SMILES: C=CCC1(CCC)C(=O)NC(=O)NC1=O
- -log(1/MED) (Rattus norvegicus): 3.47

SMILES: CCC1(CC(C)(C)C)C(=O)NC(=O)NC1=O
- -log(1/AD50) (Mus musculus): 2.91

SMILES: C=CCC1(C(C)C)C(=O)NC(=O)NC1=O [APROBARBITAL]
- -log(1/MED) (Rattus norvegicus): 3.6

SMILES: CCCCCCOc1ccncc1N
- -log(1/MIC) [1]: 5.8

SMILES: CCCCOC(N)=O
- log%Abs [2]: 0.1
- log%Abs [3]: 0.9
- log%Abs [4]: 0.82

SMILES: CCCCCCCCCC[N+](C)(C)Cc1ccccc1
- -log(1/MIC) (Pseudomonas aeruginosa): 2.74
- -log(1/MKC) (Pseudomonas aeruginosa): 2.41
- -log(1/HC50) [5]: 2.95
- -log(1/MIC) (Clostridium perfringens): 3.57
- -log(1/MKC) (Clostridium perfringens): 3.57
- -log(1/MIC) (Staphylococcus aureus): 4.74

SMILES: CCCCCCOc1ccc(N)cn1
- -log(1/MIC) [1]: 5.49

SMILES: CCCCC1(CCCC)C(=O)NC(=O)NC1=O
- -log(1/MED) (Rattus norvegicus): 3.08

SMILES: CCCC(C)(C)OC(N)=O
- log%Abs [2]: -0.21
- log%Abs [3]: 0.26
- log%Abs [4]: 0.09

SMILES: CCCCCCCCCCOc1ncccc1N
- -log(1/MIC) [1]: 3.19

SMILES: CCCC1(CCC(C)C)C(=O)NC(=O)NC1=O
- -log(1/MED) (Oryctolagus cuniculus): 3.48

SMILES: CC(C)COC(N)=O
- log%Abs [2]: 0.04
- log%Abs [3]: 0.83
- log%Abs [4]: 0.75

SMILES: CCCCCCCOc1ncccc1N
- -log(1/MIC) [1]: 4.62

SMILES: CCCCOc1ccncc1N
- -log(1/MIC) [1]: 5.73

SMILES: CCCCCCCCCCCCCC[N+](C)(C)Cc1ccccc1 [MIRISTALKONIUM ION]
- -log(1/MIC) (Pseudomonas aeruginosa): 3.65
- -log(1/MKC) (Pseudomonas aeruginosa): 3.96
- -log(1/HC50) [5]: 4.4
- -log(1/MIC) (Clostridium perfringens): 5.12
- -log(1/MKC) (Clostridium perfringens): 5.12
- -log(1/MIC) (Staphylococcus aureus): 5.82

SMILES: C=CCC1(CCCC)C(=O)NC(=O)NC1=O
- -log(1/MED) (Rattus norvegicus): 3.47

SMILES: CCC1(CCC(C)C)C(=O)NC(=O)NC1=O [AMOBARBITAL]
- -log(1/MED) (Rattus norvegicus): 3.59

SMILES: CC(C)(C)OC(N)=O
- log%Abs [2]: 0
- log%Abs [3]: 0.73
- log%Abs [4]: 0.65

SMILES: CCCCCCCOC(N)=O
- log%Abs [2]: -0.28
- log%Abs [3]: 0.08
- log%Abs [4]: -0.17

SMILES: CCCOC(N)=O
- log%Abs [2]: -0.04
- log%Abs [3]: 0.78
- log%Abs [4]: 0.71

SMILES: CCCCCOc1ccc(N)cc1
- -log(1/MIC) [1]: 5.45

SMILES: COc1ccc(N)cc1
- -log(1/MIC) [1]: 3.39

SMILES: CCOc1ncccc1N
- -log(1/MIC) [1]: 3.54

SMILES: CCCCCOc1ncccc1N
- -log(1/MIC) [1]: 5.76

SMILES: CCC1(CC)C(=O)NC(=O)NC1=O [BARBITAL]
- -log(1/MED) (Rattus norvegicus): 2.91

SMILES: CC(C)CC1(CC(C)(C)C)C(=O)NC(=O)NC1=O
- -log(1/AD50) (Mus musculus): 3.27

SMILES: CCCCCCCCCCCC[N+](C)(C)Cc1ccccc1 [BENZODODECINIUM]
- -log(1/MIC) (Pseudomonas aeruginosa): 3.61
- -log(1/MKC) (Pseudomonas aeruginosa): 3.45
- -log(1/HC50) [5]: 3.82
- -log(1/MIC) (Clostridium perfringens): 4.61
- -log(1/MKC) (Clostridium perfringens): 4.61
- -log(1/MIC) (Staphylococcus aureus): 5.61

SMILES: CCCCC1(C(C)C)C(=O)NC(=O)NC1=O
- -log(1/MED) (Rattus norvegicus): 3.49

SMILES: CCCCCCCCCCCCCCCCCC[N+](C)(C)Cc1ccccc1
- -log(1/MKC) (Pseudomonas aeruginosa): 2.63
- -log(1/HC50) [5]: 4.52
- -log(1/MIC) (Clostridium perfringens): 4.71
- -log(1/MKC) (Clostridium perfringens): 4.71
- -log(1/MIC) (Staphylococcus aureus): 5.19

SMILES: CCCCOc1ccc(N)c2ccccc12
- -log(1/MIC) [1]: 4.03

SMILES: CCCOc1ncccc1N
- -log(1/MIC) [1]: 4.79

SMILES: COC(N)=O [METHYL CARBAMATE]
- log%Abs [2]: -0.38
- log%Abs [3]: 0.52
- log%Abs [4]: 0.45

SMILES: CCCCCCCCCCCCCCCCCCC[N+](C)(C)Cc1ccccc1
- -log(1/MIC) (Pseudomonas aeruginosa): 2.91
- -log(1/MKC) (Pseudomonas aeruginosa): 2.52
- -log(1/MIC) (Clostridium perfringens): 4.73
- -log(1/MKC) (Clostridium perfringens): 4.73
- -log(1/MIC) (Staphylococcus aureus): 4.91

SMILES: CCCCCC1(CC(C)(C)C)C(=O)NC(=O)NC1=O
- -log(1/AD50) (Mus musculus): 3.32

SMILES: CCC(C)(C)OC(N)=O
- log%Abs [2]: 0.04
- log%Abs [3]: 0.77
- log%Abs [4]: 0.68

SMILES: CCCCCCCCCCCCCCCC[N+](C)(C)Cc1ccccc1 [CETALKONIUM]
- -log(1/MIC) (Pseudomonas aeruginosa): 3.68
- -log(1/MKC) (Pseudomonas aeruginosa): 3.3
- -log(1/HC50) [5]: 4.79
- -log(1/MIC) (Clostridium perfringens): 5.16
- -log(1/MKC) (Clostridium perfringens): 5.16
- -log(1/MIC) (Staphylococcus aureus): 5.56

SMILES: CCCCCCCCCCC[N+](C)(C)Cc1ccccc1
- -log(1/MIC) (Pseudomonas aeruginosa): 3.06
- -log(1/MKC) (Pseudomonas aeruginosa): 2.92
- -log(1/MIC) (Clostridium perfringens): 4.06
- -log(1/MKC) (Clostridium perfringens): 4.06
- -log(1/MIC) (Staphylococcus aureus): 5.06
